In patent US6914045B2, “Glycopeptide antibiotics” (Wyeth Holdings Corporation, priority 2001, dated 2005):
In brackets after ≈: the same amount, converted by molar mass.

Assays:
Test in all cases: in vitro antibacterial evaluation, MIC by broth dilution
Assay type in all cases: cell-based
Settings in all cases: broth dilution, 18 hours at 35° C.
[1] = system: Enterococcus sp.
In short: (§1)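 Read-out: the lowest concentration at which the test strain fails to grow. Serial dilutions (64-0.06 μg/mL) in Muller-Hinton II […], 5×10^5 CFU/mL inoculum, NCCLS M7-A2 procedure.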

[2] = system: Streptococcus sp.
In short: as §1

[3] = system: Staphylococcus sp.
In short: as §1

[4] = system: Escherichia coli
In short: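 Broth dilution MIC per NCCLS M7-A2 in Mueller-Hinton II medium, inoculum 5×10^5 CFU/mL, antibiotic range 64-0.06 μg/mL. MIC taken as lowest concentration inhibiting growth.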

MIC Enterococcus faecalis (ATCC 29212) ([1]; strain ATCC 29212): >128 µg/mL
MIC Enterococcus faecalis (GC 2242) ([1]; strain GC 2242): >128 µg/mL
MIC Enterococcus faecium (GC 2243) ([1]; strain GC 2243): >128 µg/mL
MIC Enterococcus faecalis (GC 2691) ([1]; strain GC 2691): >128 µg/mL
MIC Enterococcus faecalis (GC 3059) ([1]; strain GC 3059): >128 µg/mL
MIC Enterococcus faecalis (GC 4552) ([1]; strain GC 4552): >128 µg/mL
MIC Enterococcus faecalis (GC 4553) ([1]; strain GC 4553): >128 µg/mL
MIC Enterococcus faecalis (GC 4554) ([1]; strain GC 4554): >128 µg/mL
MIC Enterococcus faecium (GC 4556) ([1]; strain GC 4556): >128 µg/mL
MIC Enterococcus faecium (GC 4557) ([1]; strain GC 4557): 128 µg/mL (≈ 115 µM)
MIC Enterococcus avium (GC 4558) ([1]; strain GC 4558): 128 µg/mL (≈ 115 µM)
MIC Enterococcus faecalis (GC 6189) ([1]; strain GC 6189): >128 µg/mL
MIC Streptococcus pneumoniae (ATCC 6301) ([2]; strain ATCC 6301): >128 µg/mL
MIC Streptococcus pneumoniae (GC 1894) ([2]; strain GC 1894): 128 µg/mL (≈ 115 µM)
MIC Streptococcus pyogenes (GC 4563) ([2]; strain GC 4563): >128 µg/mL
MIC Streptococcus agalactiae (GC 4564) ([2]; strain GC 4564): >128 µg/mL
MIC Streptococcus pneumoniae (GC 4565) ([2]; strain GC 4565): >128 µg/mL
MIC Staphylococcus aureus (ATCC 29213) ([3]; strain ATCC 29213): >128 µg/mL
MIC Staphylococcus aureus (GC 1131) ([3]; strain GC 1131): >128 µg/mL
MIC Staphylococcus aureus (GC 3051) ([3]; strain GC 3051): >128 µg/mL
MIC Staphylococcus aureus (GC 3053) ([3]; strain GC 3053): >128 µg/mL
MIC Staphylococcus aureus (GC 4541) ([3]; strain GC 4541): >128 µg/mL
MIC Staphylococcus aureus (GC 4542) ([3]; strain GC 4542): >128 µg/mL
MIC Staphylococcus aureus-SMITH (GC 4543) ([3]; strain GC 4543): >128 µg/mL
MIC Staphylococcus aureus (GC 4544) ([3]; strain GC 4544): >128 µg/mL
MIC Staphylococcus aureus (GC 4545) ([3]; strain GC 4545): >128 µg/mL
MIC Coagulase Negative Staphylococcus (GC 4547) ([3]; strain GC 4547): >128 µg/mL
MIC Coagulase Negative Staphylococcus (GC 4548) ([3]; strain GC 4548): >128 µg/mL
MIC Coagulase Negative Staphylococcus (GC 4549) ([3]; strain GC 4549): >128 µg/mL
MIC Coagulase Negative Staphylococcus (GC 4551) ([3]; strain GC 4551): >128 µg/mL
MIC Coagulase Negative Staphylococcus (GC 6257) ([3]; strain GC 6257): >128 µg/mL
MIC Escherichia coli (ATCC 25922) ([4]; strain ATCC 25922): >128 µg/mL
MIC Escherichia coli (GC 4559) ([4]; strain GC 4559): >128 µg/mL
MIC Escherichia coli (GC 4560) ([4]; strain GC 4560): >128 µg/mL
Compound: CC(c1ccccc1)C1NC(=O)CNC(=O)C(CO)NC(=O)C(C(O)C2CNC(=N)N2C2OC(CO)C(O)C(O)C2O)NC(=O)C(C(O)C2CNC(=N)N2)NC(=O)C(Cc2ccc3oc(-c4ccc(C(=O)O)cc4)nc3c2)NC1=O (stereo not drawn) [Example 25, Cyclo[3-[2-(4-carboxyphenyl)-1,3-benzoxazol-5-yl]alanyl-3-(2-iminoimidazolidin-4-yl)seryl-3-(3-hexopyranosyl-2-iminoimidazolidin-4-yl)serylserylglycyl-β-methylphenylalanyl]]
MIC Staphylococcus haemolyticus (GC 4546) ([3]; strain GC 4546): >128 µg/mL
